For four compounds, GI50 and Activity results are on record in ChEMBL document CHEMBL1151157, “New cytotoxic steroids from the Indian Ocean sponge Axinella cf. bidderi” (2004).

As a reminder, the GI50 is the concentration giving 50% growth inhibition. High values mean lower sensitivity of the cells, low ones greater sensitivity of the cells.

What all share (assay type): functional
One experiment relates to LNCaP. Put plainly: Cytotoxicity against human LNCAP cells by MTT assay. A general note: Formazan colour is commonly taken as a measure of viable cells.
Experiment [1] in a line: Cytotoxicity against human IGROV-ET cells by MTT assay.
The test system of a further experiment is PANC-1. Kind of experiment: Cytotoxicity against human PANC1 cells by MTT assay.
In a further experiment the test system is LoVo. Put plainly: Cytotoxicity against human LoVo cells by MTT assay.
Experiment [2] in a line: (§1) Cytotoxicity against human NSCLC-N6-L16 cells by MTT assay.
For a further experiment, the species on record is Homo sapiens. Described as §1.

SMILES strings stand for the structures. In brackets after ≈: the same amount, converted by molar mass. Activity calls are given as the source filed them. No cut-off for these calls is given here.

Turning to `CC(C)CC1OC1[C@@H](C)[C@@]1(O)CC[C@H]2[C@@H]3CC=C4C[C@@H](O)CC[C@]4(C)[C@H]3CC[C@@]21C` (stereo not given in full), the GI50 in the experiment with LNCaP was 3.09 mg/L (≈ 7.42 µM); in experiment [1], 1.24 mg/L (≈ 2.98 µM); in the experiment on PANC-1, 2.17 mg/L (≈ 5.21 µM); in the experiment with LoVo, 6.23 mg/L (≈ 15 µM); in experiment [2] it was 2 mg/L (≈ 4.8 µM).
For the compound `CC(C)C(C)C1OC1[C@@H](C)[C@@]1(O)CC[C@H]2[C@@H]3CC=C4C[C@@H](O)CC[C@]4(C)[C@H]3CC[C@@]21C` (stereo not given in full), the GI50 came to 6.42 mg/L (≈ 14.9 µM) in the experiment with LNCaP; 1.68 mg/L (≈ 3.9 µM) in experiment [1]; 2.74 mg/L (≈ 6.36 µM) with PANC-1; 4.02 mg/L (≈ 9.33 µM) in the experiment with LoVo; 0.6 mg/L (≈ 1.39 µM) in experiment [2].
For the compound `CC1=C(CCC(C)C)OC[C@]23CC[C@H]4[C@@H](CC[C@H]5C[C@@H](O)CC[C@@]54C)[C@@H]2CC[C@H]13`, the GI50 is 2.88 mg/L (≈ 7.19 µM) in the experiment on LNCaP, 6.66 mg/L (≈ 16.6 µM) in experiment [1] and 8.29 mg/L (≈ 20.7 µM) in the experiment on LoVo. The outcome in the experiment on PANC-1 and in the experiment filed under Homo sapiens was inactive.
Consider `CC1=C(CCC(C)C)OC[C@]23CC[C@H]4[C@@H](CC=C5C[C@@H](O)CC[C@@]54C)[C@@H]2CC[C@H]13`, for which the GI50 in the experiment on LNCaP turned out to be 3.52 mg/L (≈ 8.83 µM); in experiment [1], 7.95 mg/L (≈ 19.9 µM); in the experiment with PANC-1 it was 8.92 mg/L (≈ 22.4 µM); in the experiment with LoVo it was 6.91 mg/L (≈ 17.3 µM). The result in the experiment listed under Homo sapiens was inactive.
